Reference: patent publication US9682995B2, “Amino-substituted isothiazoles” (BAYER PHARMA AKTIENGESELLSCHAFT, priority 2013, dated 2017)
pIC50: −log10 of the molar value.

Key:
HeLa = assay: Proliferation assay (crystal violet), HeLa; type: cell-based; details: Homo sapiens, 96 h, 4 days, read-out: Inhibition of proliferation IC50 HeLa
In short: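 Tumour cells seeded at 1000–5000 cells/well in medium with 10% FCS, dosed after 24 h at 0.001–10 μM (0.5% DMSO final) for 4 days. Cell number read by crystal-violet staining after glutaraldehyde fixation (A595), normalised to zero-point plate (0%) and untreated cells (100%); IC50 from 4-parameter fit.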

CDK2/CycE = CDK2/CycE (Homo sapiens (Human), UniProt P24941); assay: CDK2/CycE kinase assay (TR-FRET); type: biochemical; details: 10 μM ATP; read-out: CDK2 avg (IC50 [mol/l])
In short: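 GST-tagged human CDK2 and GST-CycE from Sf9 cells (~130 ng/ml) were preincubated with compound for 15 min at 22 °C. Reaction with 10 μM ATP and 0.75 μM biotinylated peptide (final) ran 25 min at 22 °C, pH 8.0. Phospho-peptide was read by TR-FRET (665/620 nm ratio, anti-pRB antibody, Eu donor) and normalised to no-enzyme and no-inhibitor controls.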

With `Cc1nsc(Nc2cnc3ccccc3n2)c1C(=O)Nc1ccc(F)c(F)c1` [Example 50, N-(3,4-Difluorophenyl)-3-methyl-5-(quinoxalin-2-ylamino)-1,2-thiazole-4-carboxamide] the pIC50 (HeLa) was 6.35 and the pIC50 (CDK2/CycE) was under 4.70.
With `COc1ccc(NC(=O)c2c(C)nsc2Nc2cnc3cc(Cl)ccc3n2)cn1` [Example 23, 5-[(6-Chloroquinoxalin-2-yl)amino]-N-(6-methoxypyridin-3-yl)-3-methyl-1,2-thiazole-4-carboxamide] the pIC50 (HeLa) was 5.74 and the pIC50 (CDK2/CycE) was under 4.70.
In the case of `CCOC(=O)c1sc(Nc2snc(C)c2C(=O)Nc2ccc(OC)nc2)nc1C` [Example 30, Ethyl 2-({4-[(6-methoxypyridin-3-yl)carbamoyl]-3-methyl-1,2-thiazol-5-yl}amino)-4-methyl-1,3-thiazole-5-carboxylate], the pIC50 (HeLa) was 5.80 and the pIC50 (CDK2/CycE) was under 4.70.
Work on `Cc1nsc(Nc2nc3c(C(F)(F)F)ccnc3s2)c1C(=O)Nc1ccc(Cl)c(F)c1` [Example 103, N-(4-Chloro-3-fluorophenyl)-3-methyl-5-{[7-(trifluoromethyl)[1,3]thiazolo[5,4-b]pyridin-2-yl]amino}-1,2-thiazole-4-carboxamide] yielded a pIC50 (HeLa) of 5.54 and a pIC50 (CDK2/CycE) of under 4.70.
With `COc1ccc(NC(=O)c2c(C)nsc2Nc2cnc3c(F)c(F)ccc3n2)cn1` [Example 43, 5-[(5,6-Difluoroquinoxalin-2-yl)amino]-N-(6-methoxypyridin-3-yl)-3-methyl-1,2-thiazole-4-carboxamide] the pIC50 (HeLa) was 6.38 and the pIC50 (CDK2/CycE) was under 4.70.
For `CCc1ccccc1NC(=O)c1c(C)nsc1Nc1ncccc1C#N` [Example 8, 5-[(3-Cyanopyridin-2-yl)amino]-N-(2-ethylphenyl)-3-methyl-1,2-thiazole-4-carboxamide], the pIC50 (HeLa) was under 5.00 and the pIC50 (CDK2/CycE) was under 4.70.
Work on `CCc1ccccc1NC(=O)c1c(C)nsc1Nc1nc2ccccc2o1` [Example 11, 5-(1,3-Benzoxazol-2-ylamino)-N-(2-ethylphenyl)-3-methyl-1,2-thiazole-4-carboxamide] yielded a pIC50 (HeLa) of 5.43 and a pIC50 (CDK2/CycE) of under 4.70.
Work on `Cc1nsc(Nc2cnc3ccccc3n2)c1C(=O)Nc1ccc(OC2CCCCC2)nc1` [Example 115, N-[6-(Cyclohexyloxy)pyridin-3-yl]-3-methyl-5-(quinoxalin-2-ylamino)-1,2-thiazole-4-carboxamide] yielded a pIC50 (HeLa) of 5.89 and a pIC50 (CDK2/CycE) of under 4.70.
Molecule `COc1ccc(NC(=O)c2c(C)nsc2Nc2cnc3cc(C(F)(F)F)ccc3n2)cn1` [Example 45, N-(6-Methoxypyridin-3-yl)-3-methyl-5-{[6-(trifluoromethyl)quinoxalin-2-yl]amino}-1,2-thiazole-4-carboxamide] has a pIC50 (HeLa) of 6.47 and a pIC50 (CDK2/CycE) of under 4.70.
